Experimental data taken from ChEMBL document CHEMBL5291721, “A preclinical secondary pharmacology resource illuminates target-adverse drug reaction associations of marketed drugs” (Nat Commun, 2023).

Assays:
D(1A) dopamine receptor [1] = target: T1, D(1A) dopamine receptor (Homo sapiens, UniProt P21728)
[2] = target: T2, Prostaglandin G/H synthase 1 (Homo sapiens, UniProt P23219); assay type: functional
[3] = target: T2, Prostaglandin G/H synthase 1; assay type: functional; remark: listed apart in the source
[4] = target: Sodium-dependent dopamine transporter (Homo sapiens, UniProt Q01959)
[5] = target: Sodium-dependent noradrenaline transporter (Homo sapiens, UniProt P23975)
[6] = target: cGMP-inhibited 3',5'-cyclic phosphodiesterase 3A (Homo sapiens, UniProt Q14432); assay type: functional
[7] = target: T3, 5-hydroxytryptamine receptor 1A (Homo sapiens, UniProt P08908)
T3 sequence (P08908 whole entry): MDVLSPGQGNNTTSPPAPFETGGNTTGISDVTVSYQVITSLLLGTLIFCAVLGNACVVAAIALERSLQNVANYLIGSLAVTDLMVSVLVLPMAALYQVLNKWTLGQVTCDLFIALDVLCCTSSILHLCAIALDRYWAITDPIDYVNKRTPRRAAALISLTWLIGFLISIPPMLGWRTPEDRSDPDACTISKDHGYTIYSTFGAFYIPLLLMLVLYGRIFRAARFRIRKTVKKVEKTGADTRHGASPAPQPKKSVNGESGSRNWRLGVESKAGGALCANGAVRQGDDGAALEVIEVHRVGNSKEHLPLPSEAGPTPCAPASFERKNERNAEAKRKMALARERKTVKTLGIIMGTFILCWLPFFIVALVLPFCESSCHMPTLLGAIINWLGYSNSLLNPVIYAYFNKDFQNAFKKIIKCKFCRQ

Histamine H3 receptor [8] = target: T4, Histamine H3 receptor (Homo sapiens, UniProt Q9Y5N1)
[9] = target: T5, Muscarinic acetylcholine receptor M2 (Homo sapiens, UniProt P08172)
T5 sequence (P08172 whole entry): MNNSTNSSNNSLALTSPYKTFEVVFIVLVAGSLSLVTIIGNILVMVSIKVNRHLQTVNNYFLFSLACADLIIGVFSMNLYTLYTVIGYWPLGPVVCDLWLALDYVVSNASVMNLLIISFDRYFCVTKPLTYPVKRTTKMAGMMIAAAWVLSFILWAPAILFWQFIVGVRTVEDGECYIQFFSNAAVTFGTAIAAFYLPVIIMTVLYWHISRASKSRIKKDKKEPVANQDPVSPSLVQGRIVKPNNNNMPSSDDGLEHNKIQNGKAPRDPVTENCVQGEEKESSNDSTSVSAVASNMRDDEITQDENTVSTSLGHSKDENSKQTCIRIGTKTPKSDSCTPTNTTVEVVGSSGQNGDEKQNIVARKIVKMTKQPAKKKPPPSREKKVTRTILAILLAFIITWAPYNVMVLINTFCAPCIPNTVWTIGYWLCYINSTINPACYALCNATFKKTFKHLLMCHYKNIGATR

Histamine H3 receptor [10] = target: T4, Histamine H3 receptor; remark: listed apart in the source
Cannabinoid receptor 1 = Cannabinoid receptor 1 (Homo sapiens, UniProt P21554); assay type: functional, cell-based
[11] = target: T6, Alpha-2A adrenergic receptor (Homo sapiens, UniProt P08913); assay type: functional, cell-based
T6 sequence (P08913 whole entry): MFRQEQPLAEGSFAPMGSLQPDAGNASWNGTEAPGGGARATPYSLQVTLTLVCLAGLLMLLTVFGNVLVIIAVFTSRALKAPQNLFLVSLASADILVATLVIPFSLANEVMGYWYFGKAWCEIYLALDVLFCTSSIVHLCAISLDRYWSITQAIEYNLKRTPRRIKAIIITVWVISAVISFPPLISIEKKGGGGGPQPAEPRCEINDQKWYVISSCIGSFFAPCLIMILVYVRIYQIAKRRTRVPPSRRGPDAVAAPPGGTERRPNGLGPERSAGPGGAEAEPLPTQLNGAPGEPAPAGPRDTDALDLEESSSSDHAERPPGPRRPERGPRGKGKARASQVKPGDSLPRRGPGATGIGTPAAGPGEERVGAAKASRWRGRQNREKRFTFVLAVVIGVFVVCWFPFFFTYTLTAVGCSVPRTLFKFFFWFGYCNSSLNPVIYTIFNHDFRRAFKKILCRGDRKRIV

D(1A) dopamine receptor [12] = target: T1, D(1A) dopamine receptor; assay type: functional, cell-based
[13] = target: T7, Alpha-1A adrenergic receptor (Homo sapiens, UniProt P35348); assay type: functional, cell-based
T7 sequence (P35348 whole entry): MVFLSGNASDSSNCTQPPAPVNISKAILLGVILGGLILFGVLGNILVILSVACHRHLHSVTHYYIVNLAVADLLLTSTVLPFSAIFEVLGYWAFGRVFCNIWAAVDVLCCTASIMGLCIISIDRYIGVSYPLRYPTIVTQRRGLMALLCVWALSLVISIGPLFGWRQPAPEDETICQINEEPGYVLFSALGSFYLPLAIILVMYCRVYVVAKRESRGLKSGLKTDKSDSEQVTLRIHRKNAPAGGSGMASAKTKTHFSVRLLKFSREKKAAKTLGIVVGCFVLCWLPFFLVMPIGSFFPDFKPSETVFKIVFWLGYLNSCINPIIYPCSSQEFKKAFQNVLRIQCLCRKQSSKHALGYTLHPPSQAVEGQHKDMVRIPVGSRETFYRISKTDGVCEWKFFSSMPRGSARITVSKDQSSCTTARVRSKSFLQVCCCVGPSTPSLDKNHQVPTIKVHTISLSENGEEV

Histamine H1 receptor = Histamine H1 receptor (Homo sapiens, UniProt P35367)
[14] = target: T7, Alpha-1A adrenergic receptor; assay type: functional, cell-based; remark: listed apart in the source
[15] = target: Beta-2 adrenergic receptor (Homo sapiens, UniProt P07550)
Note: assay procedure not described here.

Beta-2 adrenergic receptor, sequence (P07550 whole entry): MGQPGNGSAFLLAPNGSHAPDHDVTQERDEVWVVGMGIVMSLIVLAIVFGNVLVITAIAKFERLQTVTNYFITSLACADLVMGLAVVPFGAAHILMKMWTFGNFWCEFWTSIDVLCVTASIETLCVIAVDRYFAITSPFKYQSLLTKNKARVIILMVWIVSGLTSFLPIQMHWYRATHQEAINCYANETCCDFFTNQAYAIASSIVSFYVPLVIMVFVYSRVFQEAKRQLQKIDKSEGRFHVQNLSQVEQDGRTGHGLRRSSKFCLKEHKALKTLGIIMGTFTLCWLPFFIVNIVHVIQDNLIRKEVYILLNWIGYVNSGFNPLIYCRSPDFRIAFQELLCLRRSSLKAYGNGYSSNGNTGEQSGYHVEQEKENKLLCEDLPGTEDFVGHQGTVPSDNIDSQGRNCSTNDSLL
T2 sequence (P23219 whole entry): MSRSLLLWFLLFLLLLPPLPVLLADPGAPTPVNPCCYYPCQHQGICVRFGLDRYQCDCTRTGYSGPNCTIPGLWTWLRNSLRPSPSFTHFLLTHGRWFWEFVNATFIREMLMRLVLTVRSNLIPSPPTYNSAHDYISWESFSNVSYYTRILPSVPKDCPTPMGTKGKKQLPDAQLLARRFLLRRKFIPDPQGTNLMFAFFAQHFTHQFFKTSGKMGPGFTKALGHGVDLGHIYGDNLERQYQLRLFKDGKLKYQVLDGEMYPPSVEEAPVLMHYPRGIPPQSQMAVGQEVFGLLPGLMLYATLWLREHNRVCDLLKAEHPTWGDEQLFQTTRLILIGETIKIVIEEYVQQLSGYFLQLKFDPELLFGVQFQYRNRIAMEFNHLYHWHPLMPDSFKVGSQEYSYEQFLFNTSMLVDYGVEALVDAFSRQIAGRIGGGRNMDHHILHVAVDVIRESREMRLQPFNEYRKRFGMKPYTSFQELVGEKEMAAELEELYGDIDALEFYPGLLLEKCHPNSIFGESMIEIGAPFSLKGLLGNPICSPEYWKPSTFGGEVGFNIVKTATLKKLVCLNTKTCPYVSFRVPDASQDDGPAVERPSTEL
cGMP-inhibited 3',5'-cyclic phosphodiesterase 3A, sequence (Q14432 whole entry): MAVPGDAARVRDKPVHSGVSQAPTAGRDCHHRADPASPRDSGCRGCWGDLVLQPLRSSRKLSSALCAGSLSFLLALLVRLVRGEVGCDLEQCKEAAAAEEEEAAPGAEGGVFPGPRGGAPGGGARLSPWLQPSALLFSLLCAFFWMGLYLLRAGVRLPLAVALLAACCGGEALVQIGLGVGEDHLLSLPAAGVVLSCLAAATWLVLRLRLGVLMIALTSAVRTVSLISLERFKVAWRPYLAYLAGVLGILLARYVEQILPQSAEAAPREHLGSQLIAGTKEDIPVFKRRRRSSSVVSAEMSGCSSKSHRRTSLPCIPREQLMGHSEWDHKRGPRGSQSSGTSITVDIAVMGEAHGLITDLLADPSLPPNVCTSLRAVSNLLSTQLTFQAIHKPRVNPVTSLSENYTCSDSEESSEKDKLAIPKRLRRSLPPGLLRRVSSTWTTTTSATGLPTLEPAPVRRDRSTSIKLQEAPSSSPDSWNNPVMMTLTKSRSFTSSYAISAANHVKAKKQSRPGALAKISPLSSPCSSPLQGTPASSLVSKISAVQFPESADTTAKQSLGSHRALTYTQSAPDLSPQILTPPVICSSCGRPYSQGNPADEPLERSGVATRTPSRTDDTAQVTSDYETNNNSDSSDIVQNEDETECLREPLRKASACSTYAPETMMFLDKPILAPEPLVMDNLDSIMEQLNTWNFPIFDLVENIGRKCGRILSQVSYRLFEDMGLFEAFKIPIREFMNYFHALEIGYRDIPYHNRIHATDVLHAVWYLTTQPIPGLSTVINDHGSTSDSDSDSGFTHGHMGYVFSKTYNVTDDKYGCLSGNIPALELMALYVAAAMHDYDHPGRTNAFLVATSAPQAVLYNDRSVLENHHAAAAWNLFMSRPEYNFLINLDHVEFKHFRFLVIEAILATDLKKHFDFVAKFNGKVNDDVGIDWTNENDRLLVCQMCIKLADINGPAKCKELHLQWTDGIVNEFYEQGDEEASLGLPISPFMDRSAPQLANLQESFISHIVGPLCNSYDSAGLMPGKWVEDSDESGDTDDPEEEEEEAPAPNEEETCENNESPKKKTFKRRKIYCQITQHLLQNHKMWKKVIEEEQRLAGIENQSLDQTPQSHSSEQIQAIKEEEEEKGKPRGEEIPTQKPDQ
T4 sequence (Q9Y5N1 whole entry): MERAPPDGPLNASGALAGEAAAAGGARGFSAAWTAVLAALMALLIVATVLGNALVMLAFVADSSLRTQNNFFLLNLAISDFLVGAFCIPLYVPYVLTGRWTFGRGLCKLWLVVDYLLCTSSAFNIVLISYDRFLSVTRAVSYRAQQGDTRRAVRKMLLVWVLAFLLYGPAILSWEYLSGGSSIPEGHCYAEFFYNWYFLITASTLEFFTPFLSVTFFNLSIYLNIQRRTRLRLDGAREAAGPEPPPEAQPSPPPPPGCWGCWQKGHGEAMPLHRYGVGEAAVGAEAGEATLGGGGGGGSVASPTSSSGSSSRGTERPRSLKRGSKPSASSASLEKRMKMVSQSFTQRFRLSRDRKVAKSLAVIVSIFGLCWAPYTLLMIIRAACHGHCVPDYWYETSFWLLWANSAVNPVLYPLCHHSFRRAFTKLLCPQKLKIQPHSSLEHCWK
T1 sequence (P21728 whole entry): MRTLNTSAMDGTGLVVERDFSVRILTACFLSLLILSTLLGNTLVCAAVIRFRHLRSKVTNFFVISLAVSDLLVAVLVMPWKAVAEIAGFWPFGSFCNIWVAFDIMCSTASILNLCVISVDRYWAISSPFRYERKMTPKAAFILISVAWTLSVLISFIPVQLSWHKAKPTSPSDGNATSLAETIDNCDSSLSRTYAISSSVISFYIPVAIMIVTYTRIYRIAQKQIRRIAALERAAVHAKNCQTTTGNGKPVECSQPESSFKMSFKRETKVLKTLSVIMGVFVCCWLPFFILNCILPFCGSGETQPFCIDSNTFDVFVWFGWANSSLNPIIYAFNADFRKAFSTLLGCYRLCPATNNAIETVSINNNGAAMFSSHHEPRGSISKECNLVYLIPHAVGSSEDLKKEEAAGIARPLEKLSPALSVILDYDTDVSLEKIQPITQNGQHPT
Cannabinoid receptor 1, sequence (P21554 whole entry): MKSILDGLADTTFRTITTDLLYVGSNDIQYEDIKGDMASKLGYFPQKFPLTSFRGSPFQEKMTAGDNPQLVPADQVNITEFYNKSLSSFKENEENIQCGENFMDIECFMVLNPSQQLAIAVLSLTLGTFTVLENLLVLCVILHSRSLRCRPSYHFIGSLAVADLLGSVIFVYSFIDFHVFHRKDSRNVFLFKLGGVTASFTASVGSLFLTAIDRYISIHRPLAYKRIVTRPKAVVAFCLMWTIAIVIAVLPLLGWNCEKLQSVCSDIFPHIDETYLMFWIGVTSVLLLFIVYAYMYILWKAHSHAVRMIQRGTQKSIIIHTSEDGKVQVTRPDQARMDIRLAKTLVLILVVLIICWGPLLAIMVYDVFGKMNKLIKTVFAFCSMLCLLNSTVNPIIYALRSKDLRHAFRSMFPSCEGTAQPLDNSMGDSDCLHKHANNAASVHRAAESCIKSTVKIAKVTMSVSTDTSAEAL
Sodium-dependent dopamine transporter, sequence (Q01959 whole entry): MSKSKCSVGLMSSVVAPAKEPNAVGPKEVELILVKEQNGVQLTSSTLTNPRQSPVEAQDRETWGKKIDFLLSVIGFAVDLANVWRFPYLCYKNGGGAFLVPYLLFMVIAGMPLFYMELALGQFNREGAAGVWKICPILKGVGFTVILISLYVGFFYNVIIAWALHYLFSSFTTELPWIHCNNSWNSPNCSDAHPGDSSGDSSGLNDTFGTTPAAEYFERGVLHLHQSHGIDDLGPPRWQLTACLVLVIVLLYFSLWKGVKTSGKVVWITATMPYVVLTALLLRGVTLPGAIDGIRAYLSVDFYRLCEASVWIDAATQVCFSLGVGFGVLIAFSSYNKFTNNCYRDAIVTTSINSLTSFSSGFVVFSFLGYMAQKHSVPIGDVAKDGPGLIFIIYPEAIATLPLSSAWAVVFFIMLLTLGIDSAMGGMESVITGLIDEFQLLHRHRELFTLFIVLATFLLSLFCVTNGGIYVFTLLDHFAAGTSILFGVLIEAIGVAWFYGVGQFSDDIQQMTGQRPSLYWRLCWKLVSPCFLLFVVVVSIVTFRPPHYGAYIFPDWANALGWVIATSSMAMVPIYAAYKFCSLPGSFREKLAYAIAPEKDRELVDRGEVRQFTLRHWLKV
Sodium-dependent noradrenaline transporter, sequence (P23975 whole entry): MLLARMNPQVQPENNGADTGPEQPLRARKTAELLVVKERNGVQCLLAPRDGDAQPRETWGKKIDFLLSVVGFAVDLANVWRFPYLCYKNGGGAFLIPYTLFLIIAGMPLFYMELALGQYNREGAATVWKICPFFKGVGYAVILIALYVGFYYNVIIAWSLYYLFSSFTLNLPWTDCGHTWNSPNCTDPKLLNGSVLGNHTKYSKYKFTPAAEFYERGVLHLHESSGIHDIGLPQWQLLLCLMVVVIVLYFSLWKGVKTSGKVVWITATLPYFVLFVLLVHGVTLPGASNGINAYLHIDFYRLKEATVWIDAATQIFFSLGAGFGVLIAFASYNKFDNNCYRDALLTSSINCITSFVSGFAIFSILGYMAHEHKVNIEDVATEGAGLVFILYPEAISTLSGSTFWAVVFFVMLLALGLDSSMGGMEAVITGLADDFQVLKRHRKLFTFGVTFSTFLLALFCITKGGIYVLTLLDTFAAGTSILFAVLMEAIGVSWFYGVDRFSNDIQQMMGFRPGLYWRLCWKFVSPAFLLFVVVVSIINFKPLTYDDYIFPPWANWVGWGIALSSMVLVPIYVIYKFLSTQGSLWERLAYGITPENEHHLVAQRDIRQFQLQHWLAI

| Structure (SMILES) | AC50 (D(1A) dopamine receptor [1]) | AC50 [2] | AC50 [3] | AC50 [4] | AC50 [5] | AC50 [6] | AC50 [7] | AC50 (Histamine H3 receptor [8]) | AC50 [9] | AC50 (Histamine H3 receptor [10]) | AC50 (Cannabinoid receptor 1) | AC50 [11] | AC50 (D(1A) dopamine receptor [12]) | AC50 [13] | AC50 (Histamine H1 receptor) | AC50 [14] | AC50 [15] |
| --- | --- | --- | --- | --- | --- | --- | --- | --- | --- | --- | --- | --- | --- | --- | --- | --- | --- |
| NCC(CC(=O)O)c1ccccc1 (stereo not given) [PHENIBUT] | > 30 µM | > 30 µM | > 30 µM | > 30 µM | > 30 µM | > 30 µM | > 30 µM | > 30 µM | > 30 µM | – | – | – | – | – | – | – | – |
| CCC(C)C(CC)C(N)=O (stereo not given) [VALNOCTAMIDE] | – | – | – | – | – | – | – | – | – | > 30 µM | > 30 µM | > 30 µM | > 30 µM | > 30 µM | > 30 µM | > 30 µM | – |
| COc1ccc(CN(CCN(C)C)c2ccccn2)cc1 [PYRILAMINE] | 24.2 µM | > 30 µM | > 30 µM | 2.41 µM | > 30 µM | > 30 µM | 26.4 µM | > 30 µM | 8.61 µM | – | – | – | – | – | – | – | – |
| C=CCSCC1Nc2cc(Cl)c(S(N)(=O)=O)cc2S(=O)(=O)N1 (stereo not given) [ALTHIAZIDE] | > 30 µM | > 30 µM | > 30 µM | > 30 µM | > 30 µM | > 30 µM | > 30 µM | > 30 µM | > 30 µM | – | – | – | – | – | – | – | – |
| NC(=O)OCC(O)COc1ccc(Cl)cc1 (stereo not given) [CHLORPHENESIN CARBAMATE] | > 30 µM | > 30 µM | > 30 µM | > 30 µM | > 30 µM | > 30 µM | > 30 µM | > 30 µM | > 30 µM | – | – | – | – | – | – | – | – |
| Cc1cc(C(C)(C)C)cc(C)c1CC1=NCCN1 [XYLOMETAZOLINE] | – | – | – | – | – | – | – | – | – | 6.9 µM | > 30 µM | 0.0616 µM | > 30 µM | – | > 30 µM | 0.0023 µM | > 30 µM |
| CCOC(=O)C1=C[C@]2(CC)CCCN3CCc4c(n1c1ccccc41)[C@@H]32 [VINPOCETINE] | – | – | – | – | – | – | – | – | – | 18 µM | > 30 µM | 19 µM | > 30 µM | > 30 µM | > 30 µM | > 30 µM | – |
| C=C1CC[C@H](O)C/C1=C/C=C1\CCC[C@]2(C)[C@@H]([C@H](C)/C=C/[C@H](C)C(C)C)CC[C@@H]12 [ERGOCALCIFEROL] | > 30 µM | 20.3 µM | > 30 µM | > 30 µM | > 30 µM | > 30 µM | > 30 µM | > 30 µM | > 30 µM | – | – | – | – | – | – | – | – |
| CCN(CCCc1ccccc1)CCCc1ccccc1 [ALVERINE] | 3.72 µM | > 30 µM | > 30 µM | 0.481 µM | 1.15 µM | > 30 µM | 0.029 µM | > 30 µM | 0.134 µM | – | – | – | – | – | – | – | – |
| CCN(CC)C(=S)S [DITIOCARB] | > 30 µM | > 30 µM | 10.3 µM | > 30 µM | > 30 µM | > 30 µM | > 30 µM | > 30 µM | > 30 µM | – | – | – | – | – | – | – | – |
| CC(N)Cc1ccc(O)cc1 (stereo not given) [HYDROXYAMPHETAMINE] | > 30 µM | > 30 µM | > 30 µM | > 30 µM | 9.66 µM | > 30 µM | > 30 µM | > 30 µM | > 30 µM | – | – | – | – | – | – | – | – |
| CCOC(=O)[C@H](CCc1ccccc1)N[C@@H](C)C(=O)N(CC(=O)O)C1Cc2ccccc2C1 | > 30 µM | > 30 µM | > 30 µM | > 30 µM | > 30 µM | > 30 µM | > 30 µM | > 30 µM | > 30 µM | – | – | – | – | – | – | – | – |
| CCOC(=O)N1CSC[C@H]1C(=O)O [TELMESTEINE] | > 30 µM | > 30 µM | > 30 µM | > 30 µM | > 30 µM | > 30 µM | > 30 µM | > 30 µM | > 30 µM | – | – | – | – | – | – | – | – |
| CC(C)N(CCNC(=O)CN1CCCC1=O)C(C)C | > 30 µM | > 30 µM | > 30 µM | > 30 µM | > 30 µM | > 30 µM | > 30 µM | > 30 µM | > 30 µM | – | – | – | – | – | – | – | – |
| COc1cc(N)c(Cl)cc1C(=O)NC1CCN(Cc2ccccc2)CC1 [CLEBOPRIDE] | – | – | – | – | – | – | – | – | – | > 30 µM | > 30 µM | 14 µM | – | 14 µM | > 30 µM | > 30 µM | > 30 µM |
| CN1C(=O)/C(=N\NC(N)=S)c2ccccc21 [METHISAZONE] | > 30 µM | > 10 µM | > 30 µM | > 30 µM | > 30 µM | > 3 µM | > 30 µM | > 30 µM | > 30 µM | – | – | – | – | – | – | – | – |
| C[C@]12CC[C@@H]3c4ccc(O)cc4C[C@@H](CCCCCCCCC[S+]([O-])CCCC(F)(F)C(F)(F)F)[C@H]3[C@@H]1CC[C@@H]2O (stereo not given in full) [FULVESTRANT] | – | – | – | – | – | – | – | – | – | > 30 µM | > 30 µM | > 30 µM | > 30 µM | > 30 µM | > 30 µM | > 30 µM | – |
| CN(C)CCCNc1c2ccccc2nc2cccc([N+](=O)[O-])c12 [NITRACRINE] | – | – | – | – | – | – | – | – | – | > 10 µM | > 30 µM | > 30 µM | – | 6.7 µM | 14 µM | > 30 µM | > 30 µM |
| Clc1ccc2c(N3CCN(CCCN4CCN(c5ccnc6cc(Cl)ccc56)CC4)CC3)ccnc2c1 [PIPERAQUINE] | – | – | – | – | – | – | – | – | – | 6.1 µM | > 30 µM | > 30 µM | > 30 µM | > 30 µM | > 30 µM | > 30 µM | > 30 µM |
| CCC(C)C1(CC)C(=O)NC(=O)NC1=O (stereo not given) [BUTABARBITAL] | – | – | – | – | – | – | – | – | – | > 30 µM | > 30 µM | > 30 µM | > 30 µM | > 30 µM | > 30 µM | > 30 µM | – |
| Cc1cccc(N2CC(CO)OC2=O)c1 (stereo not given) [TOLOXATONE] | – | – | – | – | – | – | – | – | – | > 30 µM | > 30 µM | > 30 µM | > 30 µM | > 30 µM | > 30 µM | > 30 µM | – |
| CC1(C)S[C@@H]2[C@H](NC(=O)[C@H](N)c3ccccc3)C(=O)N2[C@H]1C(=O)OCOC(=O)[C@@H]1N2C(=O)C[C@H]2S(=O)(=O)C1(C)C [SULTAMICILLIN] | – | – | – | – | – | – | – | – | – | > 30 µM | > 30 µM | > 30 µM | > 30 µM | > 30 µM | > 30 µM | > 30 µM | > 30 µM |
